Laboratory results from patent EP4745153A1, “GLP-1, GIP AND GCG RECEPTOR […] USE THEREOF” (Jiangsu Hengrui Pharmaceuticals Co., Ltd., priority 2023, dated 2025).
Where two headings read alike, the source gives them in different places. Starred links: 1 amine or outer side, 2 acyl side, 3 side chain; linkers in the order of their positions; H or OH if unused. Non-standard residues stand in square brackets, D forms with d. Residues, ends and D or L forms follow the SMILES beside them. Groups on a side chain read outwards from the residue. *: point of attachment. C20 diacid = O=C(O)CCCCCCCCCCCCCCCCCCC(=O)*; γGlu = O=C(O)[C@H](CCC(=O)[*:2])N[*:1]; αMeK = C[C@](N)(CCCCN)C(=O)O; AEEA = NCCOCCOCC(=O)O; Aib = CC(C)(N)C(=O)O

Legend:
[1] = target: T1, human GLP-1R (Homo sapiens, UniProt P43220); test: cAMP HTRF agonist activity assay in CHO-K1 cells expressing GLP-1R; assay type: cell-based; on Activity against human GLP-1R (EC50 nM): 5% FBS, 0.1% Casein
T1 construct: expressed in transfected cells; host or cells: CHO-K1 clonal cell line
T1 sequence (P43220 24-463): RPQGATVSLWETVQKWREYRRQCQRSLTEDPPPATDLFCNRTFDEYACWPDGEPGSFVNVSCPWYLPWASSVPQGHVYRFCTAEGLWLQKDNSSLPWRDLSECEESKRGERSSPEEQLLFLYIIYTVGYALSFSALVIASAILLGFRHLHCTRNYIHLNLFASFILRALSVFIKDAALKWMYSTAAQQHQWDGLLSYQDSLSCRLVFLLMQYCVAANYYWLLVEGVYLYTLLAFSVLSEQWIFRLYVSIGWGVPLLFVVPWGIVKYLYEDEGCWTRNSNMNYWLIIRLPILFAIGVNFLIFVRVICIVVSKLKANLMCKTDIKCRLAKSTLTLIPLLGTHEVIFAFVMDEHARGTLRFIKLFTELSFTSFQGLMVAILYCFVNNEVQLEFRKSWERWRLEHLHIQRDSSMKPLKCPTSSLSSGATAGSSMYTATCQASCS
Method: Functional activity was determined in CHO-K1 clonal cell lines expressing GIPR, GLP-1R, and GCGR. […] Each recipient cell (5000 cells/well) was added to an SV 96-well plate (Cisbio, 66PL96025) and incubated with the prepared polypeptide at 37°Cfor 30 min. The resulting increase in intracellular cAMP was quantitatively measured using the cAMP-GS dynamic HTRF assay kit (Cisbio, 62AM4PEJ). Briefly, the intracellular cAMP levels were determined by adding cAMP-d2 conjugate in cell lysis buffer, followed by the antibody anti-cAMP-Eu cryptate (also in cell lysis buffer).
Using the maximum response percentage vs. the added polypeptide concentration, the relative EC50 values were derived through nonlinear regression analysis and fitted to a four-parameter logarithmic equation. For specific data, refer to Tables 7-1 to 7-8 below. […]

[2] = Pharmacokinetics in mice after single intravenous injection; parameters: species or system C57 mice; conditions: male, C57, mouse, in vivo, iv
Summary of the method: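 Male C57 mice (~25 g, 4-6 weeks, n=3) received a single i.v. dose of 200 nmol/kg in 1×PBS. Plasma collected from 5 min to 72 h was methanol-precipitated with verapamil internal standard and quantified by LC-MS (ESI positive, MRM); PK parameters were calculated by PKSolver.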

[3] = target: T2, human GIPR (Homo sapiens, UniProt P48546); test: cAMP HTRF agonist activity assay in CHO-K1 cells expressing GIPR; assay type: cell-based; conditions: read-out: Activity against human GIPR (EC50 nM); further: 5% FBS, 0.1% Casein
T2 construct: expressed in transfected cells; host or cells: CHO-K1 clonal cell line
T2 sequence (P48546 22-466): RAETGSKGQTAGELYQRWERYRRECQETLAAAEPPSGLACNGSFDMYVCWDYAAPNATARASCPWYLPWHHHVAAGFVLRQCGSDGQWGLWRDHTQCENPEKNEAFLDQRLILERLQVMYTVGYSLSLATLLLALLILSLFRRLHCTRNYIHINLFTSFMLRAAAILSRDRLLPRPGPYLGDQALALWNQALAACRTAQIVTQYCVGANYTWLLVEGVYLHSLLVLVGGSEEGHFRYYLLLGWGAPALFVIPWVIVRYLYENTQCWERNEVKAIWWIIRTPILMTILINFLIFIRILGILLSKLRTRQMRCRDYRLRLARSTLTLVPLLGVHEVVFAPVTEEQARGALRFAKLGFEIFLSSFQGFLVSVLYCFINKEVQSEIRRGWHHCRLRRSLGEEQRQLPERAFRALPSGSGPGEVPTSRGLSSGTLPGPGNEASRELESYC
Summary of the method: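 Clonal CHO-K1 lines, 5000 cells/well, exposed to polypeptides for 30 min at 37°C. Intracellular cAMP read by HTRF (cAMP-d2 conjugate plus anti-cAMP-Eu cryptate in lysis buffer). Relative EC50 from four-parameter nonlinear fit of percent maximum response against concentration.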

[4] = read-out: Activity against human GLP-1R (EC50 nM)

| Structure (SMILES) | EC50 [1] | EC50 [1, 4] | EC50 [3] | other results |
| --- | --- | --- | --- | --- |
| CC(C)C[C@H](NC(=O)[C@H](CC(C)C)NC(=O)[C@H](Cc1c[nH]c2ccccc12)NC(=O)[C@H](CCC(=O)O)NC(=O)[C@@H](NC(=O)[C@H](Cc1ccccc1)NC(=O)[C@H](CCC(=O)O)NC(=O)[C@H](CCC(N)=O)NC(=O)[C@H](CCC(N)=O)NC(=O)[C@H](C)NC(=O)[C@H](CCCCN)NC(=O)[C@H](CCCCNC(=O)COCCOCCNC(=O)COCCOCCNC(=O)CC[C@H](NC(=O)CCCCCCCCCCCCCCCCCCC(=O)O)C(=O)O)NC(=O)[C@H](CCC(=O)O)NC(=O)[C@H](CC(C)C)NC(=O)[C@H](Cc1ccc(O)cc1)NC(=O)[C@](C)(CCCCN)NC(=O)[C@H](CO)NC(=O)[C@H](Cc1ccc(O)cc1)NC(=O)[C@H](CC(=O)O)NC(=O)[C@H](CO)NC(=O)[C@@H](NC(=O)[C@H](Cc1ccccc1)NC(=O)[C@@H](NC(=O)CNC(=O)[C@H](Cc1c[nH]cn1)NC(=O)C(C)(C)NC(=O)[C@@H](N)Cc1c[nH]cn1)[C@@H](C)O)[C@@H](C)O)C(C)C)C(=O)N[C@@H](C)C(=O)NCC(=O)NCC(=O)N1CCC[C@H]1C(=O)N[C@@H](CO)C(=O)N[C@@H](CO)C(=O)NCC(=O)N[C@@H](C)C(=O)N1CCC[C@H]1C(=O)N1CCC[C@H]1C(=O)N1CCC[C@H]1C(=O)N[C@@H](CO)C(N)=O [Compound 0113] (H-H[Aib]HGTFTSDYS[αMeK]YLEK([AEEA-AEEA-γGlu-C20 diacid])KAQQEFVEWLLAGGPSSGAPPPS-NH2) | 0.032 nM |  |  |  |
| CC[C@H](C)[C@H](NC(=O)[C@H](CC(C)C)NC(=O)[C@H](Cc1c[nH]c2ccccc12)NC(=O)[C@H](CCC(=O)O)NC(=O)[C@@H](NC(=O)[C@H](Cc1ccccc1)NC(=O)[C@H](CCC(=O)O)NC(=O)[C@H](CCC(N)=O)NC(=O)[C@H](C)NC(=O)[C@H](C)NC(=O)[C@H](CCCCN)NC(=O)[C@H](CCCCNC(=O)COCCOCCNC(=O)COCCOCCNC(=O)CC[C@H](NC(=O)CCCCCCCCCCCCCCCCCCC(=O)O)C(=O)O)NC(=O)[C@H](CCC(=O)O)NC(=O)[C@H](CC(C)C)NC(=O)[C@H](Cc1ccc(O)cc1)NC(=O)[C@](C)(CCCCN)NC(=O)[C@H](CO)NC(=O)[C@H](Cc1ccc(O)cc1)NC(=O)[C@H](CC(=O)O)NC(=O)[C@H](CO)NC(=O)[C@@H](NC(=O)[C@H](Cc1ccccc1)NC(=O)[C@@H](NC(=O)CNC(=O)[C@H](Cc1c[nH]cn1)NC(=O)C(C)(C)NC(=O)[C@@H](N)Cc1c[nH]cn1)[C@@H](C)O)[C@@H](C)O)C(C)C)C(=O)N[C@@H](CCC(=O)O)C(=O)NCC(=O)NCC(=O)N1CCC[C@H]1C(=O)N[C@@H](CO)C(=O)N[C@@H](CO)C(=O)NCC(=O)N[C@@H](C)C(=O)N1CCC[C@H]1C(=O)N1CCC[C@H]1C(=O)N1CCC[C@H]1C(=O)N[C@@H](CO)C(N)=O [Compound 0115] (H-H[Aib]HGTFTSDYS[αMeK]YLEK([AEEA-AEEA-γGlu-C20 diacid])KAAQEFVEWLIEGGPSSGAPPPS-NH2) | 0.023 nM |  |  |  |
| CC(C)C[C@H](NC(=O)[C@H](CC(C)C)NC(=O)[C@H](Cc1c[nH]c2ccccc12)NC(=O)[C@H](CCC(=O)O)NC(=O)[C@@H](NC(=O)[C@H](Cc1ccccc1)NC(=O)[C@H](CCC(=O)O)NC(=O)[C@H](CCC(N)=O)NC(=O)[C@H](C)NC(=O)C(C)(C)NC(=O)[C@H](CCCCN)NC(=O)[C@H](CCCCNC(=O)COCCOCCNC(=O)COCCOCCNC(=O)CC[C@H](NC(=O)CCCCCCCCCCCCCCCCCCC(=O)O)C(=O)O)NC(=O)[C@H](CCC(=O)O)NC(=O)[C@H](CC(C)C)NC(=O)[C@H](Cc1ccc(O)cc1)NC(=O)[C@H](CCCCN)NC(=O)[C@H](CO)NC(=O)[C@H](Cc1ccc(O)cc1)NC(=O)[C@H](CC(=O)O)NC(=O)[C@H](CO)NC(=O)[C@@H](NC(=O)[C@H](Cc1ccccc1)NC(=O)[C@@H](NC(=O)CNC(=O)[C@H](Cc1c[nH]cn1)NC(=O)C(C)(C)NC(=O)[C@@H](N)Cc1c[nH]cn1)[C@@H](C)O)[C@@H](C)O)C(C)C)C(=O)N[C@@H](C)C(=O)NCC(=O)NCC(=O)N1CCC[C@H]1C(=O)N[C@@H](CO)C(=O)N[C@@H](CO)C(=O)NCC(=O)N[C@@H](C)C(=O)N1CCC[C@H]1C(=O)N1CCC[C@H]1C(=O)N1CCC[C@H]1C(=O)N[C@@H](CO)C(N)=O [Compound 0110] (H-H[Aib]HGTFTSDYSKYLEK([AEEA-AEEA-γGlu-C20 diacid])K[Aib]AQEFVEWLLAGGPSSGAPPPS-NH2) |  | 0.016 nM |  |  |
| CC[C@H](C)[C@H](NC(=O)[C@H](CO)NC(=O)[C@H](CC(C)C)NC(=O)[C@H](CC(=O)O)NC(=O)[C@H](CO)NC(=O)[C@@H](NC(=O)[C@H](Cc1ccccc1)NC(=O)[C@@H](NC(=O)CNC(=O)[C@H](Cc1c[nH]cn1)NC(=O)C(C)(C)NC(=O)[C@@H](N)Cc1c[nH]cn1)[C@@H](C)O)[C@@H](C)O)C(=O)N[C@@H](CC(C)C)C(=O)N[C@@H](CC(C)C)C(=O)N[C@@H](CCC(=O)O)C(=O)N[C@@H](CCCCNC(=O)COCCOCCNC(=O)COCCOCCNC(=O)CC[C@H](NC(=O)CCCCCCCCCCCCCCCCCCC(=O)O)C(=O)O)C(=O)N[C@@H](CCCCN)C(=O)N[C@@H](C)C(=O)N[C@@H](C)C(=O)N[C@@H](CCC(N)=O)C(=O)N[C@@H](CCC(=O)O)C(=O)N[C@@H](Cc1ccccc1)C(=O)N[C@H](C(=O)N[C@@H](CCC(=O)O)C(=O)N[C@@H](Cc1c[nH]c2ccccc12)C(=O)N[C@@H](CC(C)C)C(=O)N[C@@H](CC(C)C)C(=O)N[C@@H](C)C(=O)N[C@H](CCC(=O)O)C(=O)NCC(=O)N1CCC[C@H]1C(=O)N[C@@H](CO)C(=O)N[C@@H](CO)C(=O)NCC(=O)N[C@@H](C)C(=O)N1CCC[C@H]1C(=O)N1CCC[C@H]1C(=O)N1CCC[C@H]1C(=O)N[C@@H](CO)C(N)=O)C(C)C [Compound 0144] |  | 0.035 nM |  | clearance [2]: 0.114 mL/min/kg; half-life [2]: 9.7 h |
| CC[C@H](C)[C@H](NC(=O)[C@H](CO)NC(=O)[C@H](CC(C)C)NC(=O)[C@H](CC(=O)O)NC(=O)[C@H](CO)NC(=O)[C@@H](NC(=O)[C@H](Cc1ccccc1)NC(=O)[C@@H](NC(=O)CNC(=O)[C@H](Cc1c[nH]cn1)NC(=O)C(C)(C)NC(=O)[C@@H](N)Cc1c[nH]cn1)[C@@H](C)O)[C@@H](C)O)C(=O)N[C@@H](CC(C)C)C(=O)N[C@@H](CC(C)C)C(=O)N[C@@H](CCC(=O)O)C(=O)N[C@@H](CCCCNC(=O)COCCOCCNC(=O)COCCOCCNC(=O)CC[C@H](NC(=O)CCCCCCCCCCCCCCCCCCC(=O)O)C(=O)O)C(=O)N[C@@H](CCCCN)C(=O)N[C@@H](C)C(=O)N[C@@H](C)C(=O)NC1(C(=O)N[C@@H](CCC(=O)O)C(=O)N[C@@H](Cc2ccccc2)C(=O)N[C@H](C(=O)N[C@@H](CCC(=O)O)C(=O)N[C@@H](Cc2c[nH]c3ccccc23)C(=O)N[C@@H](CC(C)C)C(=O)N[C@@H](CC(C)C)C(=O)N[C@@H](C)C(=O)N[C@H](CCC(=O)O)C(=O)NCC(=O)N2CCC[C@H]2C(=O)N[C@@H](CO)C(=O)N[C@@H](CO)C(=O)NCC(=O)N[C@@H](C)C(=O)N2CCC[C@H]2C(=O)N2CCC[C@H]2C(=O)N2CCC[C@H]2C(=O)N[C@@H](CO)C(N)=O)C(C)C)CCC1 [Compound 0147] |  | 0.035 nM | 0.005 nM |  |
| CC[C@H](C)[C@H](NC(=O)[C@H](CO)NC(=O)[C@H](CC(C)C)NC(=O)[C@H](CC(=O)O)NC(=O)[C@H](CO)NC(=O)[C@@H](NC(=O)[C@H](Cc1ccccc1)NC(=O)[C@@H](NC(=O)CNC(=O)[C@H](Cc1c[nH]cn1)NC(=O)C(C)(C)NC(=O)[C@@H](N)Cc1c[nH]cn1)[C@@H](C)O)[C@@H](C)O)C(=O)N[C@@H](CC(C)C)C(=O)N[C@@H](CC(C)C)C(=O)N[C@@H](CCC(=O)O)C(=O)N[C@@H](CCCCNC(=O)COCCOCCNC(=O)COCCOCCNC(=O)CC[C@H](NC(=O)CCCCCCCCCCCCCCCCCCC(=O)O)C(=O)O)C(=O)N[C@@H](CCCCN)C(=O)N[C@@H](C)C(=O)N[C@@H](C)C(=O)NC1(C(=O)N[C@@H](CCC(=O)O)C(=O)N[C@@H](Cc2ccccc2)C(=O)N[C@H](C(=O)N[C@@H](CCC(=O)O)C(=O)N[C@@H](Cc2c[nH]c3ccccc23)C(=O)N[C@@H](CC(C)C)C(=O)N[C@@H](CC(C)C)C(=O)N[C@@H](C)C(=O)N[C@H](CCC(=O)O)C(=O)NCC(=O)N2CCC[C@H]2C(=O)N[C@@H](CO)C(=O)N[C@@H](CO)C(=O)NCC(=O)N[C@@H](C)C(=O)N2CCC[C@H]2C(=O)N2CCC[C@H]2C(=O)N2CCC[C@H]2C(=O)N[C@@H](CO)C(N)=O)C(C)C)CC1 [Compound 0146] |  | 0.033 nM | 0.009 nM |  |
